Experimental data published in publication PMC3954439 (Molecular cancer therapeutics, 2014).

Target: T1, ABCC10 (MRP7) (Homo sapiens, UniProt Q5T3U5)
T1 sequence (Q5T3U5 1-1492): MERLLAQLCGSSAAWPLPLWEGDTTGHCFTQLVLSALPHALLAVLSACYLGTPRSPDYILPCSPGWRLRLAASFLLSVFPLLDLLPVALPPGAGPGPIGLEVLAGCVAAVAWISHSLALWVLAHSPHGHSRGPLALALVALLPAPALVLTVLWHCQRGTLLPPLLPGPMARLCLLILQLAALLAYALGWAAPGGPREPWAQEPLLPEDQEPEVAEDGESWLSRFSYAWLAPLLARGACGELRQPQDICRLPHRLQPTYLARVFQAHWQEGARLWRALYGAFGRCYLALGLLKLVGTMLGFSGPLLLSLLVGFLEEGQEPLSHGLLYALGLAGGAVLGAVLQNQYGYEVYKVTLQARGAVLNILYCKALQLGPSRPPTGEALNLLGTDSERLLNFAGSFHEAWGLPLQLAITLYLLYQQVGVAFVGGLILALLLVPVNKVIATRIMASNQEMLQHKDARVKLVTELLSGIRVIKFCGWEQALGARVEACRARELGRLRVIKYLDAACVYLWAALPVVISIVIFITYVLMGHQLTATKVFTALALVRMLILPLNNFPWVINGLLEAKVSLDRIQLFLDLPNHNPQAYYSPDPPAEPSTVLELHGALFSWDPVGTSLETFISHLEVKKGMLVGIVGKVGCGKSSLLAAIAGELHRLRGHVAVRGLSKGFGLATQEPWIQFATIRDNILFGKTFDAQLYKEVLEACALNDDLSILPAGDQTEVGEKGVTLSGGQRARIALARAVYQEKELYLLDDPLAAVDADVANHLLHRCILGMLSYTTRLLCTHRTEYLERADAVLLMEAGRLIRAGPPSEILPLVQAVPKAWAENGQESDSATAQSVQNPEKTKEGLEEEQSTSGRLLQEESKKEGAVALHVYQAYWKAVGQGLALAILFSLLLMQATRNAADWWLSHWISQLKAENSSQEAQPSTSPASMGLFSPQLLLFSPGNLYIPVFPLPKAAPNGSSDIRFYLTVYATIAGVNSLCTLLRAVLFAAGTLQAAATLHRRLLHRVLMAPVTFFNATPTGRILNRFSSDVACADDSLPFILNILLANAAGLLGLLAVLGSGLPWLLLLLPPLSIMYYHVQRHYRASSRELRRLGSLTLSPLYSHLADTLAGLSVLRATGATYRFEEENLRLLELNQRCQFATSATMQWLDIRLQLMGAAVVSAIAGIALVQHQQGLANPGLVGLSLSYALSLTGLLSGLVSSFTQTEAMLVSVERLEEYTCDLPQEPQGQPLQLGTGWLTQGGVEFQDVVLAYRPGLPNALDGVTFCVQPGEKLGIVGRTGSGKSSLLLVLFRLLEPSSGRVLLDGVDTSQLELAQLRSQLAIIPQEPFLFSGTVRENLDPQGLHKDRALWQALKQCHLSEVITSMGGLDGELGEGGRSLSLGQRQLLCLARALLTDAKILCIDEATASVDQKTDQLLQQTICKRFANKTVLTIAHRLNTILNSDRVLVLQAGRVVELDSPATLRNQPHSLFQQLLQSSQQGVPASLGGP
Assay: [3H]-paclitaxel efflux, HEK293/ABCC10 vs HEK293/pcDNA3.[…] cells
Type: cell-based
Conditions: labelled compound; 0.01 uM; 37 C; whole cells

CC(=O)O[C@H]1C(=O)[C@@]2(C)[C@H]([C@H](OC(=O)c3ccccc3)[C@]3(O)C[C@H](OC(=O)[C@H](O)[C@@H](NC(=O)c4ccccc4)c4ccccc4)C(C)=C1C3(C)C)[C@]1(OC(C)=O)CO[C@@H]1C[C@@H]2O [[3H]-paclitaxel]
[3H]-paclitaxel efflux, HEK293/ABCC10 vs HEK293/pcDNA3.1 cells: due to active efflux of the [^3H]-paclitaxel via ABCC10
